Measured values as given in US4401660A, “Ester derivatives of 5-O-mycaminosyl tylonolide and method of using same” (Eli Lilly and Company, priority 1981, dated 1983).
Read-outs that look alike come from different tables or passages of the source.

Assays:
[1] = system: Staphylococcus aureus S13E; assay: MIC, standard agar-dilution assay (Table II); type: cell-based; design: unit not given here
Procedure: (§1) The MIC's in Table II were determined by standard agar-dilution assays. The MIC's in Table III were obtained using a conventional broth-dilution microtiter test.

[2] = system: Staphylococcus aureus X1.1; assay: MIC, standard agar-dilution assay (Table II); type: cell-based; design: unit not given here
Procedure: as §1

[3] = system: Staphylococcus aureus X400; assay: MIC, standard agar-dilution assay (Table II); type: cell-based; design: unit not given here; settings: Staphylococcus aureus X400, methicillin-resistant strain
Procedure: as §1

[4] = system: Staphylococcus epidermidis EPI1; assay: MIC, standard agar-dilution assay (Table II); type: cell-based; design: unit not given here
Procedure: as §1

[5] = system: Streptococcus pyogenes C203; assay: MIC, standard agar-dilution assay (Table II); type: cell-based; design: unit not given here
Procedure: as §1

[6] = system: Streptococcus pneumoniae Park I; assay: MIC, standard agar-dilution assay (Table II); type: cell-based; design: unit not given here
Procedure: as §1

[7] = system: Streptococcus Group D X66; assay: MIC, standard agar-dilution assay (Table II); type: cell-based; design: unit not given here
Procedure: as §1

[8] = system: Streptococcus Group D 9960; assay: MIC, standard agar-dilution assay (Table II); type: cell-based; design: unit not given here
Procedure: as §1

[9] = system: Staphylococcus aureus V41; assay: MIC, standard agar-dilution assay (Table II); type: cell-based; design: unit not given here; settings: Staphylococcus aureus V41, penicillin-resistant strain
Procedure: as §1

[10] = system: Staphylococcus epidermidis EPI2; assay: MIC, standard agar-dilution assay (Table II); type: cell-based; design: unit not given here
Procedure: as §1

[11] = system: Streptococcus pyogenes C203; assay: ED50 in mice with experimental infections (Table IV); type: in vivo; settings: doses given 1 and 4 hours postinfection; for ED50: Streptococcus pyogenes
Method in brief: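 Mice with experimental infections received test compound twice, at 1 and 4 h postinfection. ED50 is the dose in mg/kg (per administration, ×2) protecting 50% of animals.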

[12] = system: Pasteurella multocida; assay: Treatment of Pasteurella infections in chicks (Table V); type: in vivo, one-day-old chicks; settings: 30 mg/kg by subcutaneous injection one and four hours post challenge; for mortality at 30 mg/kg: Pasteurella multocida, sc, 4 h, read-out: Deaths in Treated Chicks/Number Treated (converted)
Method in brief: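 One-day-old chicks challenged subcutaneously with avian P. multocida (0.1 ml of 10^-3 dilution of 20-hour tryptose broth culture). Esters given at 30 mg/kg subcutaneously at 1 and 4 hours post challenge. Untreated infected controls, ten per group.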

[13] = system: Pasteurella multocida 40G; assay: MIC, broth-dilution microtiter test (Table III); type: cell-based; design: unit not given here
Procedure: as §1

[14] = system: Pasteurella multocida 17E; assay: MIC, broth-dilution microtiter test (Table III); type: cell-based; design: unit not given here; settings: bovine isolate
Procedure: as §1

[15] = system: Mycoplasma gallisepticum; assay: MIC, broth-dilution microtiter test (Table III); type: cell-based; design: unit not given here
Procedure: as §1

[16] = system: Staphylococcus aureus; assay: MIC, broth-dilution microtiter test (Table III); type: cell-based; design: unit not given here
Procedure: as §1

[17] = system: Mycoplasma hyorhinis; assay: MIC, broth-dilution microtiter test (Table III); type: cell-based; design: unit not given here
Procedure: as §1

[18] = system: Pasteurella multocida 60A; assay: MIC, broth-dilution microtiter test (Table III); type: cell-based; design: unit not given here; settings: avian isolate
Procedure: as §1

[19] = system: Pasteurella multocida 68C; assay: MIC, broth-dilution microtiter test (Table III); type: cell-based; design: unit not given here
Procedure: as §1

[20] = system: Mycoplasma synoviae; assay: MIC, broth-dilution microtiter test (Table III); type: cell-based; design: unit not given here
Procedure: as §1

[21] = system: Pasteurella haemolytica 22C; assay: MIC, broth-dilution microtiter test (Table III); type: cell-based; design: unit not given here
Procedure: as §1

[22] = system: Streptococcus sp. 80; assay: MIC, broth-dilution microtiter test (Table III); type: cell-based; design: unit not given here
Procedure: as §1

[23] = system: Pasteurella haemolytica 41D; assay: MIC, broth-dilution microtiter test (Table III); type: cell-based; design: unit not given here
Procedure: as §1

[24] = system: Pasteurella haemolytica 23C; assay: MIC, broth-dilution microtiter test (Table III); type: cell-based; design: unit not given here
Procedure: as §1

[25] = system: Pasteurella multocida 22A; assay: MIC, broth-dilution microtiter test (Table III); type: cell-based; design: unit not given here
Procedure: as §1

[26] = C203, oral, read-out: ED50, Oral
[27] = C203, sc, subcutaneous, read-out: ED50, Subcutaneous

SMILES | minimal inhibitory concentration (MIC) [1] | minimal inhibitory concentration (MIC) [2] | minimal inhibitory concentration (MIC) [3] | minimal inhibitory concentration (MIC) [4] | minimal inhibitory concentration (MIC) [5] | minimal inhibitory concentration (MIC) [6] | minimal inhibitory concentration (MIC) [7] | minimal inhibitory concentration (MIC) [8] | minimal inhibitory concentration (MIC) [9] | minimal inhibitory concentration (MIC) [10] | minimal inhibitory concentration (MIC) [13] | minimal inhibitory concentration (MIC) [14] | minimal inhibitory concentration (MIC) [15] | minimal inhibitory concentration (MIC) [16] | minimal inhibitory concentration (MIC) [17] | minimal inhibitory concentration (MIC) [18] | minimal inhibitory concentration (MIC) [19] | minimal inhibitory concentration (MIC) [20] | minimal inhibitory concentration (MIC) [21] | minimal inhibitory concentration (MIC) [22] | other results
CCC1OC(=O)CC(O)C(C)C(OC2OC(C)C(O)C(N(C)C)C2O)C(CC=O)CC(C)C(=O)C=CC(C)=CC1COC(=O)CSc1ccc(Cl)c(Cl)c1 (stereo not shown) [Compound 38, 23-O-[(3,4-Dichlorophenylthio)acetyl]-OMT] | 0.125 | 0.125 | 0.25 | 0.25 | 0.06 | 0.03 | 0.125 | 0.125 | 0.25 | 0.25 | 1.56 | 1.56 | < 0.05 | < 0.05 | 3.12 | 1.56 | 1.56 | 0.097 | 3.12 | < 0.05 | ED50 [11, 26]: > 150 mg/kg; mortality at 30 mg/kg [12]: 10%; minimal inhibitory concentration (MIC) [23]: 6.25; minimal inhibitory concentration (MIC) [24]: 6.25; minimal inhibitory concentration (MIC) [25]: 3.12
CCC1OC(=O)CC(O)C(C)C(OC2OC(C)C(O)C(N(C)C)C2O)C(CC=O)CC(C)C(=O)C=CC(C)=CC1COP(=O)(Oc1ccccc1)Oc1ccccc1 (stereo not shown) [Compound 48, 23-O-(Diphenylphosphoryl)-OMT] | 0.25 | 0.25 | 0.25 | 0.25 | 0.125 | 0.03 | 0.25 | 0.25 | 0.25 | 0.25 | 6.25 | 6.25 | 0.78 | 0.39 | 0.78 | 6.25 | 6.25 | 0.78 | 6.25 | 0.195 | ED50, Oral ([11]; oral): > 150 mg/kg × 2; ED50, Subcutaneous ([11]; subcutaneous): > 30 mg/kg × 2; Deaths in Treated Chicks/Number Treated [12]: 10/10; minimal inhibitory concentration (MIC) [23]: 6.25; minimal inhibitory concentration (MIC) [24]: 12.5; minimal inhibitory concentration (MIC) [25]: 6.25
CCC1OC(=O)CC(O)C(C)C(OC2OC(C)C(O)C(N(C)C)C2O)C(CC=O)CC(C)C(=O)C=CC(C)=CC1COC(=O)Cc1cccnc1 (stereo not shown) [Compound 44, 23-O-(3-Pyridylacetyl)-OMT] | 0.25 | 0.25 | 0.25 | 0.125 | 0.015 | 0.03 | 0.125 | 0.125 | 0.25 | 0.125 | 3.12 | 3.12 | 0.78 | 0.39 | 0.78 | 0.78 | 3.12 | < 0.05 | 3.12 | 0.39 | ED50 [11, 26]: 150 mg/kg; ED50 [11, 27]: 13 mg/kg; mortality at 30 mg/kg [12]: 0%; minimal inhibitory concentration (MIC) [23]: 6.25; minimal inhibitory concentration (MIC) [24]: 6.25; minimal inhibitory concentration (MIC) [25]: 3.12
CCC1OC(=O)CC(O)C(C)C(OC2OC(C)C(O)C(N(C)C)C2O)C(CC=O)CC(C)C(=O)C=CC(C)=CC1COC(=O)[C@H](O)c1ccccc1 (stereo partly shown) [Compound 42, 23-O-Mandeloyl-OMT] | 0.25 | 0.25 | 0.5 | 0.25 | 0.125 | 0.06 | 0.25 | 0.25 | 0.5 | 0.5 | 1.56 | 6.25 | 0.39 | 0.78 | 12.5 | 3.12 | 3.12 | 0.195 | 6.25 | 0.39 | ED50 [11, 26]: > 150 mg/kg; ED50 [11, 27]: 11 mg/kg; mortality at 30 mg/kg [12]: 0%; minimal inhibitory concentration (MIC) [23]: 3.12; minimal inhibitory concentration (MIC) [24]: 6.25; minimal inhibitory concentration (MIC) [25]: 6.25
